Laboratory results taken from patent US20060106099A1, “Novel inhibitors of ubiquitin isopeptidases” (priority 2002, published 2006).
Like-named read-outs stand apart in the source and are kept apart here.

How the values were obtained:
ubiquitin isopeptidases = experiment: In vitro isopeptidase activity in HCT 116 lysates, Ub-PEST; format: biochemical, human; conditions: 2-200 μM, 45 min
Description: Isopeptidase Assay. It was hypothesized that the punaglandins would inhibit ubiquitin-isopeptidase activity of the proteasome pathway as does the prostaglandin, Δ^12-PGJ2 (1), but with greater potency because of the chlorinated C-10. To validate this theory, cellular isopeptidase enzymatic activity was measured in vitro after treatment with individual punaglandins, PNG 2 (6), PNG 3 (7), and Z-PNG 4 (9) and in vivo after individual treatment with PNG 4 (8) and PNG 6 (10). This activity was determined utilizing the simple isopeptidase substrate, ubiquitin-PEST (Ub-PEST), a full/length ubiquitin (Ub) molecule fused with an 18-amino acid C-terminal peptide extension that most isopeptidases use as a substrate. The polypeptide extension contains regions rich in Pro (P), Glu (E), Ser (S), and Thr (T) residues called PEST motifs that are responsible for rapid degradation of these and other unstable proteins. Ub isopeptidases specifically cleave this peptide extension, yielding free, full-length Ub. Both the fused Ub-PEST (10.5 kDa) and the cleaved, free Ub (8.5 kDa) can be observed via immunochemical detection.
In Vitro Isopeptidase Activity. PNG 2 (6), PNG 3 (7), and Z-PNG 4 (9) were initially analyzed for isopeptidase activity in vitro in HCT 116 lysates. Cells were lysed with isopeptidase activity buffer and protein concentration adjusted to 0.3 mg/mL per sample. Each sample was subsequently incubated with 2 μM, 6 μM, 20 μM, 60 μM, or 200 μM of PNG 2 (6), PNG 3 (7), Z-PNG 4 (9), Δ^12-PGJ2 (1), and PGA1 (2) in addition to 50 μg/ml of Ub-PEST. Negative control cells were treated with vehicle (0.5% DMSO) and equivalent Ub-PEST. […] The amount of fused Ub-PEST and free Ub product was determined by SDS-PAGE fractionation.

isopeptidase = conditions: cited from earlier work
RKO cells = experiment: MTT cell viability assay, RKO cells
Description: (§1) Cell viability was measured with MTT reagent as described in materials and methods.
(§2) Cell viability was detected by the MTT assay. Briefly, 1×10^5 cells were incubated per well of a sterile, 96-well assay plate with 0-60 μM of test compounds for 48 hours. MTT reagent was added to each well, final concentration of 0.5 mg/mL, and incubated for an additional 3 hours. The media was aspirated and remaining MTT reagent from each well and added 100 μL of HCl:isopropanol (1:24). The absorbance of each sample was measured at 405 nm.

HCT 116 +/+ cells [1] = conditions: Mullally et al., University of Utah, 2003; read-out: EC50 in competent HCT 116 cells; cited from earlier work
p53 [2] = experiment: p53 accumulation, ratio RKO-E6 cells/RKO cells (immunoblot, densitometry); format: cell-based, human; conditions: 6 h; etoposide 50 μM, MG115, NSC-302979, DBA 20 μM, others 60 μM
Description: A) Accumulation of polyubiquitin. RKO-E6 cells were treated with DMSO vehicle for 24 h, 37° C., or with the concentrations of test compounds that gave 80% cell death (as determined by cell viability assay at 48 h) for 6, 12, or 24 h, 37° C. […] Schematic depicting p53 degradation via the proteasome pathway in RKO cells versus RKO-E6 cells. The activity of the HPV E6 oncoprotein hastens p53 degradation in RKO-E6 cells. ii. RKO and RKO-E6 cells were treated with vehicle, etoposide (50 μM), MG115 (20 μM), Δ12-PGJ2 (60 μM), NSC-302979 (20 μM, DBA (20 μM), curcumin (60 μM), PGB1 (60 μM), NSC-156236, (60 XM)or DPTP 60 μM for 6 h, 37° C. Lysates were fractionated by SDS-PAGE and their p53 content determined immunochemically. iii. p53 levels were measured by densitometry and the ratio of p53 protein in RKO-E6 cells/RKO cells calculated.
The medium was removed and cells lysed in 50 mM Tris, pH 7.4, 100 mM NaCl, 2 mM EDTA with 0.1% SDS, 0.1% deoxycholate, 1× complete protease inhibitor mixture. Protein concentration was measured by the Bradford method. Equal portions of the total cell lysate were fractionated from each sample (12.5 μg of protein) by SDS-PAGE. Proteins were transferred to poly(vinylidene difluoride) blocked with 5% (w/v) nonfat dry milk in Trisbuffered saline [20 mM Tris-HCl, pH 7.5, 100 mM sodium chloride, 0.1% (v/v) Tween 20]. Proteins were detected immunochemically by using primary antibodies directed against p53 (1:4000) or ubiquitin (1:1000), followed by horseradish peroxidase-conjugated secondary antibodies (1:4000). Antigen-antibody complexes were detected with enhanced chemiluminescence reagents. Gels were scanned and quantified intensities using Kodak 1D Image Analysis Software.

HCT 116 −/− cells = experiment: MTT cell viability assay, HCT 116 p53 −/− cells; conditions: for EC50: Homo sapiens, HCT-116, 48 h, read-out: Cytotoxic Potency (EC50) HCT −/−
Description: as §1, §2

p53 [3] = experiment: p53 accumulation ratio in RKO-E6 and RKO cells, punaglandin study; format: cell-based, human; conditions: 6 h; 50 μM Etoposide, 60 μM PGA2
Description: To determine if punaglandins inhibit p53 degradation by disrupting the proteasome pathway, the accumulation ratio of p53 was determined in RKO and RKO-E6 cells treated with selected punaglandins, PNG 4 (8) and PNG 6 (10). Equally seeded RKO and RKO-E6 cells were treated with vehicle (0.5% DMSO), 50 μM Etoposide, 60 μM PGA2 (3), 7 μM PNG 6 (10), and 7 μM PNG 4 (8). After 6 h incubation with vehicle or drug, cells were lysed and harvester. […] of protein from each lysate was fractionated by SDS-PAGE and probed for p53 protein. The p53 band intensities were then analyzed and quantitated using densitometry. The ratio of p53 in RKO-E6 to RKO cells was calculated by dividing the amount of p53 in RKO-E6 cells by the amount in RKO cells and multiplying by 100 to give percent

p21 = p21 accumulation in RKO cells; format: cell-based, human; conditions: 6 h
Description: It was therefore hypothesized that the isopeptidase inhibitors PNG 4 (8) and PNG 6 (10) would cause a similar accumulation of p21 protein. RKO cells were treated with 2 μM and 7 μM of 8 and 10, 50 μM Etoposide, 60 μM PGA2 (3), or 0.5% DMSO for 6 h before harvesting. Protein was then quantitated, fractionated by SDS-PAGE, and probed for p21 protein. The p21 band intensities were then analyzed and quantitated using densitometry. The ratio of p21 in treated cells to control cells was calculated by dividing the amount of p21 in treated cells by the amount in control cells and multiplied by 100 to give percent.

RKO-E6 cells = experiment: MTT cell viability assay, RKO-E6 cells; conditions: for EC50: Homo sapiens, RKOE6, 48 h, read-out: Cytotoxic Potency (EC50) RKO-E6
Description: as §1, §2

HCT 116 +/+ cells [4] = experiment: MTT cell viability assay, HCT 116 p53 +/+ cells; conditions: for EC50: Homo sapiens, HCT-116, 48 h, read-out: Cytotoxic Potency (EC50) HCT +/+
caspase-3 = experiment: Caspase-3 activity in RKO cells (DEVD-AMC); format: cell-based, human; conditions: PNG 4 0.5 μM, PNG 6 1 μM, Taxol 1 μM
Description: To determine if selected punaglandins, PNG 4 (8) and PNG 6 (10) also induce apoptosis in RKO cells in a time dependent manner, caspase-3 activity was determined. During apoptosis the caspases, a family of cysteinyl aspartate-specific proteases, are activated. These enzymes cleave specific substrates resulting in biochemical and morphological changes associated with apoptosis. Therefore, detection of activated caspases can be used as a biochemical marker for apoptosis. Caspase-3 has substrate specificity for the amino acid sequence Asp-Glu-Val-Asp (DEVD), cleaving after Asp, and therefore caspase activity can be measured by monitoring cleavage of the substrate DEVD-AMC (Asp-Glu-Val-Asp-7-amino-4-[…]).
RKO cells were treated for 4, 8, and 12 h with PNG 4 (8) at 0.5 μM and PNG 6 (10) at 1 μM. Taxol, a known apoptotic inducer at 1 μM, was used as a positive control, and negative control cells were treated with vehicle (0.5% DMSO). Caspase-3 activity rose steadily as expected from 4-12 h in cells treated with PNG 4 (8), PNG 6 (10), and Taxol but remained constant in the untreated control cells.

[5] = Homo sapiens, RKO, 48 h, read-out: Cytotoxic Potency (EC50) RKO

| SMILES | isopeptidase inhibition relative to Δ12-PGJ2 (isopeptidase) | EC50 (HCT 116 −/− cells) [µM] | p53 in RKO-E6 cells as percent of RKO cells (p53 [3]) [%] | EC50 (RKO-E6 cells) [µM] | EC50 (RKO cells; [5]) [µM] | EC50 (HCT 116 +/+ cells [4]) [µM] | further results |
| --- | --- | --- | --- | --- | --- | --- | --- |
| CCCCC[C@H](O)/C=C/[C@H]1C=CC(=O)[C@@H]1CCCCCCC(=O)O [PGA1] | significantly less potent | – | – | – | – | – | inhibition of Ub-PEST degradation in HCT 116 lysates (ubiquitin isopeptidases): no detectable inhibition; EC50 (RKO cells; read-out: EC50 in RKO cell lines, prostaglandins for comparison, comparison values in the text): 33.6 µM; EC50 (HCT 116 +/+ cells [1]): 11.6 µM |
| COc1cc([C@@H]2c3cc4c(cc3[C@@H](O[C@@H]3O[C@@H]5CO[C@@H](C)O[C@H]5[C@H](O)[C@H]3O)[C@H]3COC(=O)[C@H]23)OCO4)cc(OC)c1O [Etoposide, etoposide] | – | 29 ± 6.8 | 50 | 20 ± 2.7 | 7.3 ± 1.6 | 7.8 ± 3.9 | ratio of p53 protein [RKO-E6 cells/RKO cells] (p53 [2]): 0.1; potency in HCT 116 −/− cells less than in HCT 116 +/+ cells (HCT 116 −/− cells; 48 h, MTT): ~4 fold; p21 protein in treated cells relative to control cells (p21; 50 µM): 290%; potency in RKO-E6 cells less than in RKO cells (RKO-E6 cells; 48 h, MTT): ~3 fold |
| CC(=O)O[C@H]1C(=O)[C@@]2(C)[C@H]([C@H](OC(=O)c3ccccc3)[C@]3(O)C[C@H](OC(=O)[C@H](O)[C@@H](NC(=O)c4ccccc4)c4ccccc4)C(C)=C1C3(C)C)[C@]1(OC(C)=O)CO[C@@H]1C[C@@H]2O [Taxol, paclitaxel] | – | 0.005 | – | 0.004 | 0.004 | 0.004 | cell death in RKO compared with RKO-E6 cells (RKO cells; 48 h, MTT, isogenic pair): equivalent; Caspase-3 activity from 4-12 h (caspase-3): rose steadily; cell death in HCT 116 +/+ compared with HCT 116 −/− cells (HCT 116 +/+ cells [4]; 48 h, MTT, isogenic pair): equivalent |
| CCCCC[C@H](O)/C=C/[C@H]1C=CC(=O)[C@@H]1C/C=C\CCCC(=O)O [PGA2] | significantly less potent | – | 60 | – | – | – | p21 protein in treated cells relative to control cells (p21; RKO cells, 50 μM Etoposide, 60 μM PGA2, punaglandins 2 and 7 μM): 10% |
